Literature values in patent US7741370B2, “Double salts of (−)-hydroxycitric acid and a process for preparing the same” (Laila Impex, priority 2004, dated 2010).

Legend:
[1] = free acid form, forming a lactone; liquid form unstable during storage
[2] = prior-art salt (US 5,783,603), statement in words

Row | Compound | stability [1] | hygroscopicity [2]
1 | O=C(O)CC(O)(C(=O)O)C(O)C(=O)O (single isomer, unassigned; (-)) [(−)-hydroxycitric acid] | unstable | 
2 | potassium salt of HCA |  | hygroscopic
